Reference: patent US20260265244A1, “HETEROCYCLIC COMPOUNDS AS STING ANTAGONISTS” (Boehringer Ingelheim International GmbH, priority 2022, published 2026)

Experiments:
human STING WT (R232) = target: T1, human STING WT (R232) (Homo sapiens, UniProt Q86WV6, H232R); assay: Human STING HTRF binding assay (competitive, Cisbio 64BDSTGPEG)
T1 construct: purchased Cisbio 64BDSTGPEG
How it was run: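 Competitive HTRF: 6His-tagged human STING WT R232 binding domain (residues 138-379) with anti-6His Cryptate antibody and d2-labeled STING ligand, 180 min at room temperature, 1% DMSO, 8 concentrations from 10 μM or 1 μM top in ~1:5 steps. HTRF ratios were calibrated to a cGAMP standard curve and IC50 obtained by 4-parameter logistic fit.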

[1] = target: T2, cGAMP binding domain of wild-type (GRR) human STING, residues 155-341 (Homo sapiens, UniProt Q86WV6, H232R); assay: Increase of stability of STING protein against thermal denaturation, Differential Scanning Fluorimetry (DSF)
T2 construct: His-TEV-hSTING (WT); TEV protease cleavage site (N); made in house; host or cells: E. coli BL21 DE3
T2 sequence (Q86WV6 with tags, fused parts or gaps H232R): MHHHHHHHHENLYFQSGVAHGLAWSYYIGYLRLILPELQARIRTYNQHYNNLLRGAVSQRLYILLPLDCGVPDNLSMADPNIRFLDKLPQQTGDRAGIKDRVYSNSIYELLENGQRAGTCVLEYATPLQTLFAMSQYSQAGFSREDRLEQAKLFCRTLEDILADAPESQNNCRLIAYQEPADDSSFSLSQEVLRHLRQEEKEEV
How it was run: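 3 µM His-tagged protein with 100 uM compound, 5×SYPRO Orange, 2% DMSO in 20 mM Tris, 150 mM NaCl, pH7.5; 15–95 °C ramp in 0.5 °C steps (15 s/cycle). Tm from Boltzmann fit of the dye melt curve, duplicates averaged, repeated if SD>1.5 °C; ΔTm = Tm with compound minus Tm of protein alone.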

T1 sequence (Q86WV6 138-379 H232R): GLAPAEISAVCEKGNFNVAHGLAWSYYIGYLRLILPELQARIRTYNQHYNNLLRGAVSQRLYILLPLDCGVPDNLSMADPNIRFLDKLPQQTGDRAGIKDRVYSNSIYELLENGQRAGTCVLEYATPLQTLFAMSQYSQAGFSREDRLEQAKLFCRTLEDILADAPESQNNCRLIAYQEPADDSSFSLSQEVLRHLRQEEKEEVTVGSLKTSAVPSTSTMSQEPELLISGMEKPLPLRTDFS

SMILES	IC50 (human STING WT (R232))	DSF [1]
Cc1c(C(C)C)c(-c2cccc3nn(C[C@H](O)c4ccccc4)cc23)nn1-c1cc2cn(C)nc2nc1CC1CC1 [Example 54, (1R)-2-(4-{1-[6-(cyclopropylmethyl)-2-methyl-2H-pyrazolo[3,4-b]pyridin-5-yl]-5-methyl-4-(propan-2-yl)-1H-pyrazol-3-yl}-2H-indazol-2-yl)-1-phenylethan-1-ol]	86.9 nM	28 K
Cn1cc2cc(-c3nc(-c4cccc5nn(C[C@H](O)c6ccc(O)cc6)cc45)c(C4CC4)n3C)c(C3CC3)nc2n1 [Example 55, 4-[(1R)-2-[4-(5-cyclopropyl-2-{6-cyclopropyl-2-methyl-2H-pyrazolo[3,4-b]pyridin-5-yl}-1-methyl-1H-imidazol-4-yl)-2H-indazol-2-yl]-1-hydroxyethyl]phenol]	3.7 nM	29 K
Cc1nc2nn(CC3CC3)cc2cc1-n1nc(-c2cccc3nn(C[C@H](O)c4ccccc4)cc23)c(C(C)C)c1C [Example 56, (1R)-2-(4-{1-[2-(cyclopropylmethyl)-6-methyl-2H-pyrazolo[3,4-b]pyridin-5-yl]-5-methyl-4-(propan-2-yl)-1H-pyrazol-3-yl}-2H-indazol-2-yl)-1-phenylethan-1-ol]	18.1 nM	25 K
CC(C)c1c(-c2cccc3nn(C[C@H](O)c4ccccc4)cc23)nc(-c2cc3cn(C)nc3nc2C(F)(F)F)n1C [Example 57, (1R)-2-(4-{1-methyl-2-[2-methyl-6-(trifluoromethyl)-2H-pyrazolo[3,4-b]pyridin-5-yl]-5-(propan-2-yl)-1H-imidazol-4-yl}-2H-indazol-2-yl)-1-phenylethan-1-ol]	24.9 nM	27 K
COC(C)c1nc2nn(C)cc2cc1-n1nc(-c2cccc3nn(C[C@H](O)c4ccccc4)cc23)c(C(C)C)c1C (stereo partly drawn) [Example 58, (1R)-2-(4-{1-[6-(1-methoxyethyl)-2-methyl-2H-pyrazolo[3,4-b]pyridin-5-yl]-5-methyl-4-(propan-2-yl)-1H-pyrazol-3-yl}-2H-indazol-2-yl)-1-phenylethan-1-ol]	15.8 nM	28 K
CCCc1nc2nn(C)cc2cc1-n1nc(-c2cccc3nn(C[C@H](O)c4ccccc4)cc23)c(C(C)C)c1C [Example 60, (1R)-2-[4-(5-methyl-1-{2-methyl-6-propyl-2H-pyrazolo[3,4-b]pyridin-5-yl}-4-(propan-2-yl)-1H-pyrazol-3-yl)-2H-indazol-2-yl]-1-phenylethan-1-ol]	23.9 nM	28 K
Cc1nc2nn(Cc3ncnn3C)cc2cc1-n1nc(-c2cccc3nn(C[C@H](O)c4ccccc4)cc23)c(C(C)C)c1C [Example 62, (1R)-2-[4-(5-methyl-1-{6-methyl-2-[(1-methyl-1H-1,2,4-triazol-5-yl)methyl]-2H-pyrazolo[3,4-b]pyridin-5-yl}-4-(propan-2-yl)-1H-pyrazol-3-yl)-2H-indazol-2-yl]-1-phenylethan-1-ol]	19.1 nM	25 K
Cc1nc2nn(C)cc2cc1-n1nc(-c2cccc3nn(C[C@H](OCC4CC4)c4ccccc4)cc23)c(C(C)C)c1C [Example 63, 2-[(2R)-2-(cyclopropylmethoxy)-2-phenylethyl]-4-(1-{2,6-dimethyl-2H-pyrazolo[3,4-b]pyridin-5-yl}-5-methyl-4-(propan-2-yl)-1H-pyrazol-3-yl)-2H-indazole]	39.8 nM	22 K
Cc1c(C(C)C)c(-c2cccc3nn(C[C@H](O)c4ccccc4)cc23)nn1-c1cc2cn(C)nc2nc1C(F)F [Example 64, (1R)-2-(4-{1-[6-(difluoromethyl)-2-methyl-2H-pyrazolo[3,4-b]pyridin-5-yl]-5-methyl-4-(propan-2-yl)-1H-pyrazol-3-yl}-2H-indazol-2-yl)-1-phenylethan-1-ol]	7.6 nM	26 K
Cc1nc2nn(C)cc2cc1-n1nc(-c2cccc3nn(CCc4ccc(OCCN(C)C)cc4)cc23)c(C(C)C)c1C [Example 65, [2-(4-{2-[4-(1-{2,6-dimethyl-2H-pyrazolo[3,4-b]pyridin-5-yl}-5-methyl-4-(propan-2-yl)-1H-pyrazol-3-yl)-2H-indazol-2-yl]ethyl}phenoxy)ethyl]dimethylamine]	16.9 nM	26 K
Cc1nc2nn(C)cc2cc1-n1nc(-c2cccc3nn(C[C@H](OCCCCO)c4ccccc4)cc23)c(C(C)C)c1C [Example 66, 4-[(1R)-2-[4-(1-{2,6-dimethyl-2H-pyrazolo[3,4-b]pyridin-5-yl}-5-methyl-4-(propan-2-yl)-1H-pyrazol-3-yl)-2H-indazol-2-yl]-1-phenylethoxy]butan-1-ol]	8 nM	23 K
Cc1nc2nn(CC(O)CO)cc2cc1-n1nc(-c2cccc3nn(C[C@H](O)c4ccccc4)cc23)c(C(C)C)c1C (stereo partly drawn) [Example 67, 3-[5-(3-{2-[(2R)-2-hydroxy-2-phenylethyl]-2H-indazol-4-yl}-5-methyl-4-(propan-2-yl)-1H-pyrazol-1-yl)-6-methyl-2H-pyrazolo[3,4-b]pyridin-2-yl]propane-1,2-diol]	10.8 nM	26 K
Cn1cc2cc(-c3nc(-c4cccc5nn(C[C@H](O)c6ccc(OCC7CCOCC7)cc6)cc45)c(C4CC4)n3C)c(C3CC3)nc2n1 [Example 68]	17.7 nM	28 K
Cn1cc2cc(-c3nc(-c4cccc5nn(C[C@H](O)c6ccc(OC7COC7)cc6)cc45)c(C4CC4)n3C)c(C3CC3)nc2n1 [Example 69, (1R)-2-[4-(5-cyclopropyl-2-{6-cyclopropyl-2-methyl-2H-pyrazolo[3,4-b]pyridin-5-yl}-1-methyl-1H-imidazol-4-yl)-2H-indazol-2-yl]-1-[4-(oxetan-3-yloxy)phenyl]ethan-1-ol]	7.5 nM	29 K
Cc1nc2nn(CC(O)CN3CCN(C)CC3)cc2cc1-n1nc(-c2cccc3nn(C[C@H](O)c4ccccc4)cc23)c(C(C)C)c1C (stereo partly drawn) [Example 70, 1-[5-(3-{2-[(2R)-2-hydroxy-2-phenylethyl]-2H-indazol-4-yl}-5-methyl-4-(propan-2-yl)-1H-pyrazol-1-yl)-6-methyl-2H-pyrazolo[3,4-b]pyridin-2-yl]-3-(4-methylpiperazin-1-yl)propan-2-ol]	37.7 nM	24 K
CCc1nc2nn(C)cc2cc1-c1nc(-c2cccc3nn(C[C@H](F)c4ccc(Cl)cc4)cc23)c(C2CC2)n1C [Example 72, 2-[(2R)-2-(4-chlorophenyl)-2-fluoroethyl]-4-(5-cyclopropyl-2-{6-ethyl-2-methyl-2H-pyrazolo[3,4-b]pyridin-5-yl}-1-methyl-1H-imidazol-4-yl)-2H-indazole]	17.6 nM	30 K
Cc1c(C(C)C)c(-c2cccc3nn(C[C@H](O)c4ccccc4)cc23)nn1-c1cc2cn(C)nc2nc1C1CCOCC1 [Example 73, (1R)-2-(4-{5-methyl-1-[2-methyl-6-(oxan-4-yl)-2H-pyrazolo[3,4-b]pyridin-5-yl]-4-(propan-2-yl)-1H-pyrazol-3-yl}-2H-indazol-2-yl)-1-phenylethan-1-ol]	11.4 nM	28 K
CC(C)c1nc2nn(C)cc2cc1-c1nc(-c2cccc3nn(CS(=O)(=O)c4ccccc4)cc23)c(C2CC2)n1C [Example 96, 2-[(Benzenesulfonyl)methyl]-4-{5-cyclopropyl-1-methyl-2-[2-methyl-6-(propan-2-yl)-2H-pyrazolo[3,4-b]pyridin-5-yl]-1H-imidazol-4-yl}-2H-indazole]	34 nM	29 K
CC(C)c1nc2nn(C)cc2cc1-c1nc(-c2cccc3nn(C[C@H](O)c4ccccc4)cc23)c(C2CC2)n1C [Example 97, (1R)-2-(4-{5-Cyclopropyl-1-methyl-2-[2-methyl-6-(propan-2-yl)-2H-pyrazolo[3,4-b]pyridin-5-yl]-1H-imidazol-4-yl}-2H-indazol-2-yl)-1-phenylethan-1-ol]	3.4 nM	31 K
Cc1nc2nn(CC#N)cc2cc1-n1nc(-c2cccc3nn(C[C@H](O)c4ccccc4)cc23)c(C(C)C)c1C [Example 98, 2-[5-(3-{2-[(2R)-2-hydroxy-2-phenylethyl]-2H-indazol-4-yl}-5-methyl-4-(propan-2-yl)-1H-pyrazol-1-yl)-6-methyl-2H-pyrazolo[3,4-b]pyridin-2-yl]acetonitrile]	3.1 nM	29 K
CCn1cc2cc(-n3nc(-c4cccc5nn(C[C@H](O)c6ccccc6)cc45)c(C(C)C)c3C)c(C)nc2n1 [Example 100, (1R)-2-[4-(1-{2-ethyl-6-methyl-2H-pyrazolo[3,4-b]pyridin-5-yl}-5-methyl-4-(propan-2-yl)-1H-pyrazol-3-yl)-2H-indazol-2-yl]-1-phenylethan-1-ol]	6.9 nM	28 K
Cc1c(C(C)C)c(-c2cccc3nn(C[C@H](O)c4ccc(OCCN(C)C)cc4)cc23)nn1-c1cc2cn(C)nc2nc1C1CC1 [Example 101]	10.6 nM	30 K
Cc1nc2nn(C)cc2cc1-n1nc(-c2cccc3nn(C[C@H](O)c4ccccc4)cc23)c(C(C)C)c1C [Example 102, (1R)-2-[4-(1-{2,6-Dimethyl-2H-pyrazolo[3,4-b]pyridin-5-yl}-5-methyl-4-(propan-2-yl)-1H-pyrazol-3-yl)-2H-indazol-2-yl]-1-phenylethan-1-ol]	3.6 nM	28 K
